Measured values taken from patent publication US20060252918A1, “Use of hepatitis virus (hcv) p7 protein” (priority 2002, published 2006).

Columns and labels:
HCV p7 = target: T1, HCV p7 (Hepatitis C virus genotype 1b, UniProt O92972); type: cell-based
T1 construct: the p7 protein of HCV is a 63 amino acid protein; expressed in transfected cells; host or cells: Vero cells (T7-driven expression, lipofectamine transfection)
T1 sequence (O92972 747-809 limits assumed): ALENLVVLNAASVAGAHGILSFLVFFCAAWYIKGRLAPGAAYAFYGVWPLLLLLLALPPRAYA

[1] = target: T2, HISp7 (HCV p7 with 6-HIS linker) (Hepatitis C virus genotype 1b, UniProt O92972); type: biochemical, hepatitis C virus 1B (J4 isolate)
T2 construct: the p7 protein of HCV is a 63 amino acid protein; GST (N, cleaved yes); made in house; host or cells: E. coli (pGEXHISp7 in pGEX4T1; DH5alpha is named for cloning)
T2 sequence (O92972 747-809 limits assumed): T1 sequence (O92972 747-809 limits assumed)

[2] = target: the molecule itself; experiment: self-association in HepG2 cell membranes

For `NC12CC3CC(CC(C3)C1)C2` [amantadine], which “inhibition of HA transport facilitated by HCV p7” value (HCV p7) is on record?
The value was “HA transport is inhibited”.

And the “inhibition of ion channel formation by HISp7” value [1]?
The value was “inhibits ion channel formation by HISp7 FIG. 9) in the micromolar range”.

B1: hepatitis C virus (HCV) p7 protein (other)
chain: T1 sequence (O92972 747-809 limits assumed)
notes: mature; p7 expressed alone in hepatocyte-derived (HepG2) cells; The mammalian expression construct is not described; p7 is the 63-residue part of it
Does B1 bind [2]?
Result: binds
